US12570642B2, “GLP-IR modulating compounds” (Gilead Sciences, Inc., priority 2021, dated 2026)

The molecules below were run against GLP-1R (Homo sapiens, UniProt P43220) (assay: GLP-1R Activation - cAMP Assay). Conditions: cAMP increase in CHO cells stably expressing GLP-1R; each compound run on one of the two cAMP assays (Assay 1 or Assay 2, not specified).
Type: cell-based
Method in brief: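 cAMP rise read by HTRF after 30 min agonist exposure (10-point titration, 37 °C) in HBSS/20 mM Hepes/0.1% BSA, following 1 h pre-incubation. Cells: stable GLP-1R CHO line, 1,000/well, seeded overnight. Sigmoidal fit of response vs log concentration gives EC50.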

Chain of GLP-1R (P43220 24-463): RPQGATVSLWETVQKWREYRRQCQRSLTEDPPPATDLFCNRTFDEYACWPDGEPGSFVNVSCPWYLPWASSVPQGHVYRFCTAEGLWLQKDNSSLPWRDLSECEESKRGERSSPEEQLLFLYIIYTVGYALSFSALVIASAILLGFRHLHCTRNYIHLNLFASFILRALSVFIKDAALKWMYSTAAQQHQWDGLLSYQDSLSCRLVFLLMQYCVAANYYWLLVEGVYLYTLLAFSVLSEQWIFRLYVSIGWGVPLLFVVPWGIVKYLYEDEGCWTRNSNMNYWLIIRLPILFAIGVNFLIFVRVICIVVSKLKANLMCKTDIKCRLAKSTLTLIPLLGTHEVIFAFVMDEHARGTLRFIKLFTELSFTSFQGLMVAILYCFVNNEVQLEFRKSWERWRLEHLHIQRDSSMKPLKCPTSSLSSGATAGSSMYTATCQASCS

| Structure (SMILES) | EC50 |
| --- | --- |
| Cc1cc(Cc2nc3ccc(C(=O)O)cc3n2[C@@H]2COCC2(C)C)c(Cl)cc1-c1ccnc(OCc2ccc(Cl)cc2F)n1 [Example 318, (S)-2-(2-chloro-4-(2-((4-chloro-2-fluorobenzyl)oxy)pyrimidin-4-yl)-5-methylbenzyl)-1-(4,4-dimethyltetrahydrofuran-3-yl)-1H-benzo[d]imidazole-6-carboxylic acid] | 0.745 nM |
| Cc1cc(Cc2nc3c(F)cc(C(=O)O)cc3n2[C@@H]2COCC2(C)C)c(Cl)cc1-c1ccnc(OCc2ccc(C#N)cc2F)n1 [Example 319, (S)-2-(2-chloro-4-(2-((4-cyano-2-fluorobenzyl)oxy)pyrimidin-4-yl)-5-methylbenzyl)-1-(4,4-dimethyltetrahydrofuran-3-yl)-4-fluoro-1H-benzo[d]imidazole-6-carboxylic acid] | 0.346 nM |
| Cc1cc(Cc2nc3ccc(C(=O)O)cc3n2[C@@H]2COCC2(C)C)c(Cl)cc1-c1ccnc(OCc2ccc(C#N)cc2F)n1 [Example 320, (S)-2-(2-chloro-4-(2-((4-cyano-2-fluorobenzyl)oxy)pyrimidin-4-yl)-5-methylbenzyl)-1-(4,4-dimethyltetrahydrofuran-3-yl)-1H-benzo[d]imidazole-6-carboxylic acid] | 0.827 nM |
| CC1(C)COC[C@H]1n1c(Cc2c(F)cc(-c3ccc(F)c(OCc4ccc(C#N)cc4F)n3)cc2F)nc2ccc(C(=O)O)cc21 [Example 322, (S)-2-(4-(6-((4-cyano-2-fluorobenzyl)oxy)-5-fluoropyridin-2-yl)-2,6-difluorobenzyl)-1-(4,4-dimethyltetrahydrofuran-3-yl)-1H-benzo[d]imidazole-6-carboxylic acid] | 0.346 nM |
| COc1cc(Cl)ncc1COc1nc(-c2cc(Cl)c(Cc3nc4ccc(C(=O)O)cc4n3[C@@H]3COCC3(C)C)cc2C)ccc1F [Example 323, (S)-2-(2-chloro-4-(6-((6-chloro-4-methoxypyridin-3-yl)methoxy)-5-fluoropyridin-2-yl)-5-methylbenzyl)-1-(4,4-dimethyltetrahydrofuran-3-yl)-1H-benzo[d]imidazole-6-carboxylic acid] | 0.734 nM |
| CC1(C)COC[C@H]1n1c(Cn2cc(Cl)c(-c3cccc(OCc4ccc(Cl)cc4F)n3)cc2=O)nc2c(F)cc(C(=O)O)cc21 [Example 327, (S)-2-((5′-chloro-6-((4-chloro-2-fluorobenzyl)oxy)-2′-oxo-[2,4′-bipyridin]-1′(2′H)-yl)methyl)-1-(4,4-dimethyltetrahydrofuran-3-yl)-4-fluoro-1H-benzo[d]imidazole-6-carboxylic acid] | 0.266 nM |
| CC1(C)COC[C@H]1n1c(Cn2cc(F)c(-c3ccc(F)c(OCc4ccc(C#N)cc4F)n3)cc2=O)nc2ccc(C(=O)O)cc21 [Example 328, (S)-2-((6-((4-cyano-2-fluorobenzyl)oxy)-5,5′-difluoro-2′-oxo-[2,4′-bipyridin]-1′(2′H)-yl)methyl)-1-(4,4-dimethyltetrahydrofuran-3-yl)-1H-benzo[d]imidazole-6-carboxylic acid] | 0.555 nM |
| CC1(C)COC[C@H]1n1c(Cc2c(F)cc(-c3ccc(F)c(OCc4ccc(Cl)cc4F)n3)c(F)c2F)nc2ccc(C(=O)O)cc21 [Example 335, (S)-2-(4-(6-((4-chloro-2-fluorobenzyl)oxy)-5-fluoropyridin-2-yl)-2,3,6-trifluorobenzyl)-1-(4,4-dimethyltetrahydrofuran-3-yl)-1H-benzo[d]imidazole-6-carboxylic acid] | 0.306 nM |

Molecules with a lower EC50, results first:

| EC50 | Structure (SMILES) |
| --- | --- |
| 0.083 nM | CC1(C)COC[C@H]1n1c(Cc2c(F)cc(-c3cccc(OCc4ccc(C#N)cc4F)n3)cc2F)nc2ccc(C(=O)O)cc21 [Example 321, (S)-2-(4-(6-((4-cyano-2-fluorobenzyl)oxy)pyridin-2-yl)-2,6-difluorobenzyl)-1-(4,4-dimethyltetrahydrofuran-3-yl)-1H-benzo[d]imidazole-6-carboxylic acid] |
| 0.049 nM | COc1cc(Cl)ncc1COc1nc(-c2ccc(Cc3nc4c(F)cc(C(=O)O)cc4n3[C@@H]3COCC3(C)C)c(F)c2)ccc1F [Example 324, (S)-2-(4-(6-((6-chloro-4-methoxypyridin-3-yl)methoxy)-5-fluoropyridin-2-yl)-2-fluorobenzyl)-1-(4,4-dimethyltetrahydrofuran-3-yl)-4-fluoro-1H-benzo[d]imidazole-6-carboxylic acid] |
| 0.155 nM | CC1(C)COC[C@H]1n1c(Cc2cc(F)c(-c3ccc(F)c(OCc4ccc(C#N)cc4)n3)cc2F)nc2c(F)cc(C(=O)O)cc21 [Example 325, (S)-2-(4-(6-((4-cyanobenzyl)oxy)-5-fluoropyridin-2-yl)-2,5-difluorobenzyl)-1-(4,4-dimethyltetrahydrofuran-3-yl)-4-fluoro-1H-benzo[d]imidazole-6-carboxylic acid] |
| 0.236 nM | CC1(C)COC[C@H]1n1c(Cn2cc(Cl)c(-c3cccc(OCc4ccc(C#N)cc4F)n3)cc2=O)nc2c(F)cc(C(=O)O)cc21 [Example 326, (S)-2-((5′-chloro-6-((4-cyano-2-fluorobenzyl)oxy)-2′-oxo-[2,4′-bipyridin]-1′(2′H)-yl)methyl)-1-(4,4-dimethyltetrahydrofuran-3-yl)-4-fluoro-1H-benzo[d]imidazole-6-carboxylic acid] |
| 0.062 nM | CC1(C)COC[C@H]1n1c(Cc2ccc(-c3cccc(OCc4ccc(Cl)cc4F)n3)cc2F)nc2c(F)cc(C(=O)O)cc21 [Example 329, (S)-2-(4-(6-((4-chloro-2-fluorobenzyl)oxy)pyridin-2-yl)-2-fluorobenzyl)-1-(4,4-dimethyltetrahydrofuran-3-yl)-4-fluoro-1H-benzo[d]imidazole-6-carboxylic acid] |
| 0.011 nM | CC1(C)COC[C@H]1n1c(Cc2ccc(-c3ccc(F)c(OCc4ccc(C#N)cc4F)n3)cc2F)nc2ccc(C(=O)O)cc21 [Example 330] |
| 0.218 nM | CC1(C)COC[C@H]1n1c(Cc2ccc(-c3cccc(OCc4ccc(Cl)cc4F)n3)cc2F)nc2ccc(C(=O)O)cc21 [Example 331, (S)-2-(4-(6-((4-chloro-2-fluorobenzyl)oxy)pyridin-2-yl)-2-fluorobenzyl)-1-(4,4-dimethyltetrahydrofuran-3-yl)-1H-benzo[d]imidazole-6-carboxylic acid] |
| 0.159 nM | CC1(C)COC[C@H]1n1c(Cc2ccc(-c3ccc(F)c(OCc4ccc(Cl)cc4F)n3)cc2F)nc2ccc(C(=O)O)cc21 [Example 332, (S)-2-(4-(6-((4-chloro-2-fluorobenzyl)oxy)-5-fluoropyridin-2-yl)-2-fluorobenzyl)-1-(4,4-dimethyltetrahydrofuran-3-yl)-1H-benzo[d]imidazole-6-carboxylic acid] |
| 0.067 nM | Cc1cc(Cc2nc3c(F)cc(C(=O)O)cc3n2[C@@H]2COCC2(C)C)c(Cl)cc1-c1ccc(F)c(OCc2ccc(Cl)cc2F)n1 [Example 334, (S)-2-(2-chloro-4-(6-((4-chloro-2-fluorobenzyl)oxy)-5-fluoropyridin-2-yl)-5-methylbenzyl)-1-(4,4-dimethyltetrahydrofuran-3-yl)-4-fluoro-1H-benzo[d]imidazole-6-carboxylic acid] |
| 0.016 nM | CC1(C)COC[C@H]1n1c(Cc2c(F)cc(-c3ccc(F)c(OCc4ccc(Cl)cc4F)n3)c(F)c2F)nc2c(F)cc(C(=O)O)cc21 [Example 336, (S)-2-(4-(6-((4-chloro-2-fluorobenzyl)oxy)-5-fluoropyridin-2-yl)-2,3,6-trifluorobenzyl)-1-(4,4-dimethyltetrahydrofuran-3-yl)-4-fluoro-1H-benzo[d]imidazole-6-carboxylic acid] |
